For data set [1], the system named is various pancreatic cancer cells (BxPC3, PK-8, PL45, AsPC1, Panc1). The data set can be described thus: Test Example 1: accumulation of peptide to pancreatic cancer cells (fluorescence microscope). The format is cell-based, human. Conditions: FITC-labeled peptide 2 μM, 2 hours at 37° C., FIG. 1. How it is done:
(§1) These were maintained by subculture in the laboratory by the inventors.
(§2) Pancreatic cancer cells and HPNE cells were cultured using a 5% FBS-containing CS-C medium kit. KYN-2 cells, HaCaT cells, NHDF cells, MMNK-1 cells, and Liver cells were cultured using 10% FBS-containing RPMI1640 medium. Kidney cells were cultured using a proliferation medium for normal human renal epithelial cells (RenaLife Comp Kit). NuLi-1 cells were cultured using BEGM medium (Bronchial Epithelial Growth Medium, Serum-free). TIME cells were cultured using EBM-2-MV Bullet kit (Endothelial Cell Basal Medium-2 Bullet kit).
(§3) Those cells were cultured for 2 hours at 37° C. Subsequently, the cells were washed three times with the medium in order to remove the peptide-containing medium. Subsequently, the uptake of the various peptides in the living cells was visually evaluated using an inverted type fluorescence microscope. Prior to the microscopic examination, the culture supernatant containing the peptides were removed, the cells were washed three times with 1×PBS (−), and then the cells were treated with trypsin. Adherent cells were detached and were immediately transferred into a fresh 96-well plate. The cells were resuspended in a fresh culture fluid, and then a microscopic examination was performed.

Data set [2] has as its system KYN-2 cells and normal cells originating from various tissues. Briefly: Test Example 1: accumulation of peptide to other cancer cells and normal cells (fluorescence microscope). The format is cell-based, human. Conditions: FITC-labeled peptide 2 μM, 2 hours at 37° C., FIG. 1. The method, then:
as §1, §2, §3

In data set [3] the test system is BxPC3 cells. Briefly: Test Example 1: quantitative fluorescence in BxPC3 cells relative to HPNE cells. Conditions: absorption into normal pancreatic duct epithelial cells (HPNE) designated as 1.0, 2 μM, 2 hours, FIG. 2B. The format is cell-based, human. How it is done:
as §3
The graph of FIG. 2A is a graph showing the proportions of fluorescence intensities detected in various cells, the proportions being obtained by quantitatively analyzing the fluorescence detected in the various cells to which various peptides were added in Test Example 1, and determining relative values by designating the fluorescence detected in HPNE cells, which are a human immortalized normal pancreatic duct epithelial cell line, as 1.0. […]

The next data set concerns Panc1 cells. The data set can be described thus: Test Example 2: accumulation of peptide in tissues of mouse intraperitoneally transplanted with Panc1 cells. The format is in vivo. Conditions: NOD-SCID mice with Panc1 cells, i.v. 300 μg per 20 g body weight, 30 minutes after administration, FIG. 3A. How it is done:
(§4) NOD-SCID mice (six-week-old female mice purchased from Crea-Japan, Inc.) intraperitoneally transplanted with Panc1 cells or PK-8 cells, which are human pancreatic cancer cells, in an amount of 1×10^6 cells in each animal, were produced as human pancreatic cancer cell-transplanted mice. Thirty days after the transplantation of human pancreatic cancer cells, Peptide 1 produced in Example 1 was intravenously (i.v.) injected to the mice in an amount of 300 μg with respect to 20 g of the mouse body weight. […] In FIG. 3A and FIG. 3B, the “Bright Field” refers to images taken in the bright field, and “FITC” refers to images taken in the dark field under the conditions of green fluorescence excitation at a wavelength of 488 nm.

The next data set concerns PK-8 cells. The data set can be described thus: Test Example 2: accumulation of peptide in tissues of mouse intraperitoneally transplanted with PK-8 cells. Conditions: NOD-SCID mice with PK-8 cells, i.v. 300 μg per 20 g body weight, 30 minutes after administration, FIG. 3B. The format is in vivo. How it is done:
as §4

In data set [4] the test system is BxPC3 cells. Briefly: Test Example 3: accumulation of peptide in tissues of mouse with BxPC3 cells transplanted into the pancreas. The format is in vivo. The method, then: NOD-SCID mice (six-week-old female mice purchased from Crea-Japan, Inc.) having BxPC3 cells, which are human pancreatic cancer cells, transplanted into the pancreas in an amount of 1×10^6 cells in each animal, were produced as human pancreatic cancer cell-transplanted mice. Thirty days after the transplantation of human pancreatic cancer cells, Peptide 4 produced in Example 1 was intravenously (i.v.) injected to the mice in an amount of 150 μg with respect to 20 g of the mouse body weight. […] In FIG. 4, the “Bright Field” refers to images taken in the bright field, and “FITC” refers to images taken in the dark field under the conditions of green fluorescence excitation at a wavelength of 488 nm. Furthermore, in FIG. 4, “brain” means the brain, “heart” means the heart, “kidney” means the kidney, “liver” means the liver, “lung” means the lung, “muscle” means the skeletal muscle, “pancreas” means the pancreas, “spleen” means the spleen, and “tumor” means a malignant tumor. “Surface” means the surface of various organs, and “transection” means a transverse section of various organs.
FIG. 5 is a graph showing the proportions of the fluorescence intensities detected in various tissues, the proportions being obtained by designating the fluorescence detected in normal pancreas as 1.0.

Experimental findings from patent US10668125B2, “Peptide having highly-shifted accumulation to pancreatic cancer cells and tissues, and use of said peptide” (Niigata University, priority 2015, dated 2020) are described below.

Where no end group is shown, it is not given here.

As to “ARRYTWIRA (also: FITC label, site not given here) [Peptide 2, IVV library-derived 9-amino acid residue peptide, synthesized FITC-labeled]”, in data set [1], the “fluorescence detected in the various pancreatic cancer cells” value is “strong fluorescence was detected”. In addition, the “fluorescence detected in KYN-2 cells and normal cells originating from various tissues” value (“fluorescence detected … from various tissues” below) in data set [2] is “fluorescence was hardly detected”. Also, the “absorption ratio (S/N ratio) into BxPC3 cells” value in the data set on BxPC3 cells [3] is listed as “about 6 times”.

In the case of “GYRRTTPSYWRMWLR (also: FITC label, site not given here) [Peptide 1, IVV library-derived 15-amino acid residue peptide, synthesized FITC-labeled]”, in data set [1], the “fluorescence detected in the various pancreatic cancer cells” value was “strong fluorescence was detected”. In addition, the “fluorescence detected … from various tissues” value in data set [2] is “fluorescence was hardly detected”. Further, the “absorption ratio (S/N ratio) into BxPC3 cells” value in the data set on BxPC3 cells [3] is “about 6 times”. The “fluorescence of FITC in tumor lesions and normal organs” value in the data set with Panc1 cells was “strong fluorescence of FITC was detected in the tumor and the metastatic lesions”; in the data set with PK-8 cells, “strong fluorescence of FITC was detected in the tumor and the metastatic lesions”.

As to “RAWRQCRWR (also: FITC label, site not given here) [Peptide 3, IVV library-derived 9-amino acid residue peptide, synthesized FITC-labeled]”, the “fluorescence detected in the various pancreatic cancer cells” value in data set [1] is given as “strong fluorescence was detected”. In addition, in data set [2], the “fluorescence detected … from various tissues” value is given as “fluorescence was hardly detected”.

Regarding “RRPTTWHKP (also: FITC label, site not given here) [Peptide 4, IVV library-derived 9-amino acid residue peptide, synthesized FITC-labeled]”, in data set [1], the “fluorescence detected in the various pancreatic cancer cells” value is recorded as “strong fluorescence was detected”. Also, the “fluorescence detected … from various tissues” value in data set [2] was “fluorescence was hardly detected”. In addition, in the data set on BxPC3 cells [4] (NOD-SCID mice with BxPC3 cells in pancreas, i.v. 150 μg per 20 g body weight, 30 minutes after administration, FIG. 4), the “fluorescence of FITC in tumor lesions and normal organs” value was “strong fluorescence of FITC was detected in the tumor and the kidneys”. Further, the “S/N ratio in the target malignant tumor” value in the data set with BxPC3 cells [4] (absorption into normal pancreas designated as 1.0, i.v. 150 μg per 20 g, 30 minutes, FIG. 5) is reported as “about 9 times”. In addition, the “S/N ratio in the kidneys” value in the data set on BxPC3 cells [4] (absorption into normal pancreas designated as 1.0, i.v. 150 μg per 20 g, 30 minutes, FIG. 5, ascribed to urinary excretion, not cell uptake) is “about 11 times”.
